Experiments:
[1] = system: HIF-2α and HIF-2α-regulated genes (PAI-1, CCND1, VEGFA, and GLUT1); assay: mRNA levels in tumor of 786-O xenograft bearing mice; format: in vivo; details: renal cell carcinoma 786-O xenograft bearing mice; 10, 30 and 100 mg/kg three times at 12 hour intervals
786-O xenograft = assay: tumor size in 786-O xenograft bearing mice, single agent; format: in vivo; details: 3, 10, 30 and 100 mg/kg BID for 20 days
[2] = system: 786-O renal cell carcinoma cells; assay: In vivo efficacy study, renal cell carcinoma 786-O xenograft model; parameters: species or system SCID/Biege mice
human VEGFA [3] = assay: plasma human VEGF level of 786-O xenograft bearing mice; format: in vivo; details: 10, 30 and 100 mg/kg three times at 12 hour intervals, prior to treatment vs 12 h post treatment
human VEGFA [4] = assay: In vivo PK/PD study: plasma level of human VEGFA by ELISA; parameters: species or system SCID/Biege mice; details: 10, 30 or 100 mg/kg oral gavage, three times at 12 hour intervals
Experimental: (§1) About 5×10^6 renal cell carcinoma 786-O tumor cells (ATCC® CRL-1932™, VHL and HIF-1α null cell line) in PBS and Matrigel (1:1 in volume) were injected subcutaneously at the right flanks of SCID/Biege mice at 6-7 weeks of age for xenograft development. When the xenografts reached about 450 mm^3 in size, the tumor bearing mice were randomly divided into 4 groups (n=4). Plasma was collected prior to treatment by retro-orbital bleeding. […] All animals were sacrificed at 12 hours post last dose. Tumor, kidney, and plasma were collected from each animal. Total RNA was extracted from the tumors and kidneys. The mRNA levels of HIF-1α, HIF-2α and their respective target genes were determined by qRT-PCR (FIG. 1).

[5] = system: EPO and PGK1 mRNA in mouse kidney; assay: In vivo PK/PD study: mouse kidney mRNA levels by qRT-PCR; parameters: species or system SCID/Biege mice; details: oral gavage, three times at 12 hour intervals
Experimental: as §1

[6] = target: HIF-2α HIS TAG-PASB Domain; assay: HIF-2α Scintillation Proximity Assay (SPA), probe displacement; format: binding
Experimental: The percent inhibition was determined and IC50 values were calculated using the Dotmatics system based on the following equation: % inhibition=[(high control−sample)/(high control−low control)]×100.

Compound: N#Cc1cc(F)cc(Oc2ccc(S(=O)(=O)C(F)F)c3c2CC(F)(F)[C@H]3O)c1 [Compound 15, 3-[(1S)-7-(difluoromethylsulfonyl)-2,2-difluoro-1-hydroxy-indan-4-yl]oxy-5-fluoro-benzonitrile]
- mRNA levels of HIF-2α and HIF-2α-regulated genes (PAI-1, CCND1, VEGFA, and GLUT1) in tumor [1]: reduced
- tumor size (786-O xenograft): tumor size reduction and regression
- Reduction of tumor size vs vehicle (t-Test) ([2]; all treatment groups, 786-O xenograft model): statistically significant reduction
- plasma level of human VEGFA (human VEGFA [3]): reduced
- Human VEGFA in the plasma of 786-O tumor-bearing mice (human VEGFA [4]): significant reduction
- Level of EPO mRNA in mouse kidney [5]: reduced
- mRNA level of PGK1 in mouse kidney [5]: remained unchanged

Compound: O=S(=O)(c1ccc(Oc2ccc(F)c(Cl)c2)c2c1[C@H](O)C(F)(F)C2)C(F)F [Compound 26, (S)-4-(3-Chloro-4-fluorophenoxy)-7-((difluoromethyl)sulfonyl)-2,2-difluoro-2,3-dihydro-1H-inden-1-ol]
- IC50 [6]: < 5 nM

Compound: CCN(CC)CCNC(=O)c1c(C)[nH]c(/C=C2\C(=O)Nc3ccc(F)cc32)c1C [Sutent, sutent, reference compound]
- Tumor size Mean ± SEM ([2]; 40 mg/kg QD, after 20 days of dosing): 211.59 mm^3
